Source: ChEMBL document CHEMBL6078713, “Synthesis and mechanistic studies of 4-aminoquinoline-Isatin molecular hybrids and Schiff's bases as promising antimicrobial agents” (Eur J Med Chem, 2025)
≈ marks a conversion by molar mass, not a printed value. Calls of active or inactive are those of the source. The calls are words filed in the database; no cut-off is given here.

Tests used:
Escherichia coli [1] = assay: Antibacterial activity against Escherichia coli MTCC 443 assessed as diameter of zone of inhibition at MIC incubated overnight by disk diffusion method; assay type: functional
Bacillus subtilis [2] = assay: Ratio of MBC for antibacterial activity against Bacillus subtilis MTCC 736 to MIC for bactericidal activity against Bacillus subtilis MTCC 736; assay type: functional
Salmonella typhi [3] = assay: Antibacterial activity against Salmonella typhi assessed as diameter of zone of inhibition at 500 ug/ml by agar disk diffusion method; assay type: functional, Salmonella enterica subsp. enterica serovar Typhi; conditions: Salmonella enterica, read-out: DIZ
Enterococcus faecalis [4] = assay: Synergistic antibacterial activity against Enterococcus faecalis MTCC 439 assessed as inhibition of bacterial growth incubated overnight in presence of ciprofloxacin by serial dilution based spectrophotometer; assay type: functional
Escherichia coli [5] = assay: Synergistic antibacterial activity against Escherichia coli MTCC 443 assessed as inhibition of bacterial growth incubated overnight in presence of ciprofloxacin by serial dilution based spectrophotometer; assay type: functional
Enterococcus faecalis [6] = assay: Bactericidal activity against Enterococcus faecalis MTCC 439 assessed as inhibition of bacterial growth incubated overnight; assay type: functional
Pseudomonas aeruginosa [7] = assay: Synergistic antibacterial activity against Pseudomonas aeruginosa MTCC 2453 assessed as inhibition of bacterial growth incubated overnight in presence of ciprofloxacin by serial dilution based spectrophotometer; assay type: functional
Bacillus subtilis [8] = assay: Bactericidal activity against Bacillus subtilis MTCC 736 assessed as inhibition of bacterial growth incubated overnight; assay type: functional
Staphylococcus aureus [9] = assay: Antibacterial activity against Staphylococcus aureus MTCC 902 assessed as diameter of zone of inhibition at 2 times MIC incubated overnight by disk diffusion method; assay type: functional
Escherichia coli [10] = assay: Antibacterial activity against Escherichia coli MTCC 443 assessed as diameter of zone of inhibition at 0.5 times MIC incubated overnight by disk diffusion method; assay type: functional
Staphylococcus aureus [11] = assay: Ratio of MBC for antibacterial activity against Staphylococcus aureus MTCC 902 to MIC for bactericidal activity against Staphylococcus aureus MTCC 902; assay type: functional
Bacillus subtilis [12] = assay: Antibacterial activity against Bacillus subtilis MTCC 736 assessed as diameter of zone of inhibition at 2 times MIC incubated overnight by disk diffusion method; assay type: functional
Enterococcus faecalis [13] = assay: Antibacterial activity against Enterococcus faecalis MTCC 439 assessed as diameter of zone of inhibition at 2 times MIC incubated overnight by disk diffusion method; assay type: functional
Staphylococcus aureus [14] = assay: Antibacterial activity against Staphylococcus aureus MTCC 902 assessed as inhibition of bacterial growth incubated overnight by serial dilution based spectrophotometer; assay type: functional
Salmonella typhi [15] = assay: Bactericidal activity against Salmonella typhi assessed as inhibition of bacterial growth incubated overnight; assay type: functional, Salmonella enterica subsp. enterica serovar Typhi; conditions: Salmonella enterica
Pseudomonas aeruginosa [16] = assay: Ratio of MBC for antibacterial activity against Pseudomonas aeruginosa MTCC 2453 to MIC for bactericidal activity against Pseudomonas aeruginosa MTCC 2453; assay type: functional
Escherichia coli [17] = assay: Antibacterial activity against Escherichia coli MTCC 443 assessed as diameter of zone of inhibition at 2 times MIC incubated overnight by disk diffusion method; assay type: functional
Salmonella typhi [18] = assay: Antibacterial activity against Salmonella typhi assessed as inhibition of bacterial growth incubated overnight by serial dilution based spectrophotometer; assay type: functional, Salmonella enterica subsp. enterica serovar Typhi; conditions: Salmonella enterica
Enterococcus faecalis [19] = assay: Synergistic antibacterial activity against Enterococcus faecalis MTCC 439 assessed as fractional inhibitory concentration index incubated overnight in presence of ciprofloxacin by microdilution checkerboard assay; assay type: functional
Enterococcus faecalis [20] = assay: Antibacterial activity against Enterococcus faecalis MTCC 439 assessed as diameter of zone of inhibition at 0.5 times MIC incubated overnight by disk diffusion method; assay type: functional
Enterococcus faecalis [21] = assay: Antibacterial activity against Enterococcus faecalis MTCC 439 assessed as diameter of zone of inhibition at 500 ug/ml by agar disk diffusion method; assay type: functional; conditions: read-out: DIZ
Bacillus subtilis [22] = assay: Synergistic antibacterial activity against Bacillus subtilis MTCC 736 assessed as inhibition of bacterial growth incubated overnight in presence of ciprofloxacin by serial dilution based spectrophotometer; assay type: functional
Pseudomonas aeruginosa [23] = assay: Antibacterial activity against Pseudomonas aeruginosa MTCC 2453 assessed as diameter of zone of inhibition at 2 times MIC incubated overnight by disk diffusion method; assay type: functional
Salmonella typhi [24] = assay: Ratio of MBC for antibacterial activity against Salmonella typhi to MIC for bactericidal activity against Salmonella typhi; assay type: functional, Salmonella enterica subsp. enterica serovar Typhi
Bacillus subtilis [25] = assay: Antibacterial activity against Bacillus subtilis MTCC 736 assessed as inhibition of bacterial growth incubated overnight by serial dilution based spectrophotometer; assay type: functional
Escherichia coli [26] = assay: Ratio of MBC for antibacterial activity against Escherichia coli MTCC 443 to MIC for bactericidal activity against Escherichia coli MTCC 443; assay type: functional
Pseudomonas aeruginosa [27] = assay: Synergistic antibacterial activity against Pseudomonas aeruginosa MTCC 2453 assessed as fractional inhibitory concentration index incubated overnight in presence of ciprofloxacin by microdilution checkerboard assay; assay type: functional
Enterococcus faecalis [28] = assay: Antibacterial activity against Enterococcus faecalis MTCC 439 assessed as diameter of zone of inhibition at MIC incubated overnight by disk diffusion method; assay type: functional
Staphylococcus aureus [29] = assay: Synergistic antibacterial activity against Staphylococcus aureus MTCC 902 assessed as inhibition of bacterial growth incubated overnight in presence of ciprofloxacin by serial dilution based spectrophotometer; assay type: functional
Escherichia coli [30] = assay: Bactericidal activity against Escherichia coli MTCC 443 assessed as inhibition of bacterial growth incubated overnight; assay type: functional
Enterococcus faecalis [31] = assay: Antibacterial activity against Enterococcus faecalis MTCC 439 assessed as inhibition of bacterial growth incubated overnight by serial dilution based spectrophotometer; assay type: functional
Escherichia coli [32] = assay: Antibacterial activity against Escherichia coli MTCC 443 assessed as inhibition of bacterial growth incubated overnight by serial dilution based spectrophotometer; assay type: functional
Pseudomonas aeruginosa [33] = assay: Bactericidal activity against Pseudomonas aeruginosa MTCC 2453 assessed as inhibition of bacterial growth incubated overnight; assay type: functional
Salmonella typhi [34] = assay: Synergistic antibacterial activity against Salmonella typhi assessed as fractional inhibitory concentration index incubated overnight in presence of ciprofloxacin by microdilution checkerboard assay; assay type: functional, Salmonella enterica subsp. enterica serovar Typhi
Bacillus subtilis [35] = assay: Antibacterial activity against Bacillus subtilis MTCC 736 assessed as diameter of zone of inhibition at MIC incubated overnight by disk diffusion method; assay type: functional
Salmonella typhi [36] = assay: Synergistic antibacterial activity against Salmonella typhi assessed as inhibition of bacterial growth incubated overnight in presence of ciprofloxacin by serial dilution based spectrophotometer; assay type: functional, Salmonella enterica subsp. enterica serovar Typhi; conditions: Salmonella enterica
Staphylococcus aureus [37] = assay: Bactericidal activity against Staphylococcus aureus MTCC 902 assessed as inhibition of bacterial growth incubated overnight; assay type: functional
Salmonella typhi [38] = assay: Antibacterial activity against Salmonella typhi assessed as diameter of zone of inhibition at 0.5 times MIC incubated overnight by disk diffusion method; assay type: functional, Salmonella enterica subsp. enterica serovar Typhi
Pseudomonas aeruginosa [39] = assay: Antibacterial activity against Pseudomonas aeruginosa MTCC 2453 assessed as diameter of zone of inhibition at MIC incubated overnight by disk diffusion method; assay type: functional
Salmonella typhi [40] = assay: Antibacterial activity against Salmonella typhi assessed as diameter of zone of inhibition at MIC incubated overnight by disk diffusion method; assay type: functional, Salmonella enterica subsp. enterica serovar Typhi
Salmonella typhi [41] = assay: Antibacterial activity against Salmonella typhi assessed as diameter of zone of inhibition at 2 times MIC incubated overnight by disk diffusion method; assay type: functional, Salmonella enterica subsp. enterica serovar Typhi
Staphylococcus aureus [42] = assay: Bacteriostatic activity against Staphylococcus aureus MTCC 902 assessed as reduction in bacterial growth at 2 times MIC measured upto 24 hrs by absorbance based assay; assay type: functional, organism-based
Staphylococcus aureus [43] = assay: Synergistic antibacterial activity against Staphylococcus aureus MTCC 902 assessed as fractional inhibitory concentration index incubated overnight in presence of ciprofloxacin by microdilution checkerboard assay; assay type: functional
Staphylococcus aureus [44] = assay: Antibacterial activity against Staphylococcus aureus MTCC 902 assessed as diameter of zone of inhibition at MIC incubated overnight by disk diffusion method; assay type: functional

Compound: Clc1ccc2c(NCC/N=C/c3ccc4ccccc4n3)ccnc2c1
- diameter of the inhibition zone (DIZ) (Escherichia coli [1]): 11 mm
- Ratio (Bacillus subtilis [2]): 4
- zone of inhibition at 500 µg/mL (Salmonella typhi [3]): 11 mm
- MIC (Enterococcus faecalis [4]): 16 µg/mL
- MIC (Escherichia coli [5]): 4 µg/mL
- MBC (Enterococcus faecalis [6]): 512 µg/mL (≈ 1420 µM)
- MIC (Pseudomonas aeruginosa [7]): 64 µg/mL
- MBC (Bacillus subtilis [8]): 512 µg/mL (≈ 1420 µM)
- diameter of the inhibition zone (DIZ) (Staphylococcus aureus [9]): 10 mm
- diameter of the inhibition zone (DIZ) (Escherichia coli [10]): 11 mm
- Ratio (Staphylococcus aureus [11]): 1
- diameter of the inhibition zone (DIZ) (Bacillus subtilis [12]): 10 mm
- diameter of the inhibition zone (DIZ) (Enterococcus faecalis [13]): 7 mm
- MIC (Staphylococcus aureus [14]): 512 µg/mL (≈ 1420 µM)
- MBC (Salmonella typhi [15]): 128 µg/mL (≈ 355 µM)
- Ratio (Pseudomonas aeruginosa [16]): 2
- diameter of the inhibition zone (DIZ) (Escherichia coli [17]): 12 mm
- MIC (Salmonella typhi [18]): 128 µg/mL (≈ 355 µM)
- fractional inhibitory concentration index (FICI) (Enterococcus faecalis [19]): 0.312
- diameter of the inhibition zone (DIZ) (Enterococcus faecalis [20]): 7 mm
- zone of inhibition at 500 µg/mL (Enterococcus faecalis [21]): 10 mm
- MIC (Bacillus subtilis [22]): 32 µg/mL
- diameter of the inhibition zone (DIZ) (Pseudomonas aeruginosa [23]): 8 mm
- Ratio (Salmonella typhi [24]): 1
- MIC (Bacillus subtilis [25]): 128 µg/mL (≈ 355 µM)
- Ratio (Escherichia coli [26]): 1
- fractional inhibitory concentration index (FICI) (Pseudomonas aeruginosa [27]): 1.25
- diameter of the inhibition zone (DIZ) (Enterococcus faecalis [28]): 7 mm
- MIC (Staphylococcus aureus [29]): 256 µg/mL
- MBC (Escherichia coli [30]): 128 µg/mL (≈ 355 µM)
- MIC (Enterococcus faecalis [31]): 256 µg/mL (≈ 709 µM)
- MIC (Escherichia coli [32]): 128 µg/mL (≈ 355 µM)
- MBC (Pseudomonas aeruginosa [33]): 512 µg/mL (≈ 1420 µM)
- fractional inhibitory concentration index (FICI) (Salmonella typhi [34]): 0.093
- diameter of the inhibition zone (DIZ) (Bacillus subtilis [35]): 6 mm
- MIC (Salmonella typhi [36]): 4 µg/mL
- MBC (Staphylococcus aureus [37]): 512 µg/mL (≈ 1420 µM)
- diameter of the inhibition zone (DIZ) (Salmonella typhi [38]): 9 mm
- diameter of the inhibition zone (DIZ) (Pseudomonas aeruginosa [39]): 6 mm
- diameter of the inhibition zone (DIZ) (Salmonella typhi [40]): 10 mm
- diameter of the inhibition zone (DIZ) (Salmonella typhi [41]): 12 mm
- Activity (Staphylococcus aureus [42]): Active
- fractional inhibitory concentration index (FICI) (Staphylococcus aureus [43]): 1.5
- diameter of the inhibition zone (DIZ) (Staphylococcus aureus [44]): 8 mm

Compound: O=[N+]([O-])c1ccccc1/C=N/CCNc1ccnc2cc(Cl)ccc12
- diameter of the inhibition zone (DIZ) (Escherichia coli [1]): 7 mm
- Ratio (Bacillus subtilis [2]): 1
- zone of inhibition at 500 µg/mL (Salmonella typhi [3]): 12 mm
- MIC (Enterococcus faecalis [4]): 2 µg/mL
- MIC (Escherichia coli [5]): 8 µg/mL
- MBC (Enterococcus faecalis [6]): 256 µg/mL (≈ 722 µM)
- MIC (Pseudomonas aeruginosa [7]): 64 µg/mL
- MBC (Bacillus subtilis [8]): 128 µg/mL (≈ 361 µM)
- diameter of the inhibition zone (DIZ) (Staphylococcus aureus [9]): 9 mm
- diameter of the inhibition zone (DIZ) (Escherichia coli [10]): 6 mm
- Ratio (Staphylococcus aureus [11]): 1
- diameter of the inhibition zone (DIZ) (Bacillus subtilis [12]): 11 mm
- diameter of the inhibition zone (DIZ) (Enterococcus faecalis [13]): 12 mm
- MIC (Staphylococcus aureus [14]): 256 µg/mL (≈ 722 µM)
- MBC (Salmonella typhi [15]): 64 µg/mL (≈ 180 µM)
- Ratio (Pseudomonas aeruginosa [16]): 1
- diameter of the inhibition zone (DIZ) (Escherichia coli [17]): 9 mm
- MIC (Salmonella typhi [18]): 64 µg/mL (≈ 180 µM)
- fractional inhibitory concentration index (FICI) (Enterococcus faecalis [19]): 0.265
- diameter of the inhibition zone (DIZ) (Enterococcus faecalis [20]): 9 mm
- zone of inhibition at 500 µg/mL (Enterococcus faecalis [21]): 13 mm
- MIC (Bacillus subtilis [22]): 32 µg/mL
- diameter of the inhibition zone (DIZ) (Pseudomonas aeruginosa [23]): 11 mm
- Ratio (Salmonella typhi [24]): 1
- MIC (Bacillus subtilis [25]): 128 µg/mL (≈ 361 µM)
- Ratio (Escherichia coli [26]): 1
- fractional inhibitory concentration index (FICI) (Pseudomonas aeruginosa [27]): 1.5
- diameter of the inhibition zone (DIZ) (Enterococcus faecalis [28]): 10 mm
- MIC (Staphylococcus aureus [29]): 64 µg/mL
- MBC (Escherichia coli [30]): 128 µg/mL (≈ 361 µM)
- MIC (Enterococcus faecalis [31]): 128 µg/mL (≈ 361 µM)
- MIC (Escherichia coli [32]): 128 µg/mL (≈ 361 µM)
- MBC (Pseudomonas aeruginosa [33]): 128 µg/mL (≈ 361 µM)
- fractional inhibitory concentration index (FICI) (Salmonella typhi [34]): 0.077
- diameter of the inhibition zone (DIZ) (Bacillus subtilis [35]): 9 mm
- MIC (Salmonella typhi [36]): 1 µg/mL
- MBC (Staphylococcus aureus [37]): 256 µg/mL (≈ 722 µM)
- diameter of the inhibition zone (DIZ) (Salmonella typhi [38]): 6 mm
- diameter of the inhibition zone (DIZ) (Pseudomonas aeruginosa [39]): 8 mm
- diameter of the inhibition zone (DIZ) (Salmonella typhi [40]): 11 mm
- diameter of the inhibition zone (DIZ) (Salmonella typhi [41]): 8 mm
- Activity (Staphylococcus aureus [42]): Active
- fractional inhibitory concentration index (FICI) (Staphylococcus aureus [43]): 1.25
- diameter of the inhibition zone (DIZ) (Staphylococcus aureus [44]): 8 mm
